From patent US11311542B2, “Inhibitors of cyclin dependent kinase 7 (CDK7)” (Syros Pharmaceuticals, Inc., priority 2018, dated 2022)

Key:
HCC70 cells = experiment: Inhibition of cell proliferation (CyQUANT Direct), HCC70; type: cell-based, human; settings: Homo sapiens, HCC70, 72-hour
Method: (§1) HCC70 and MB453 cells are cell lines derived from human triple negative breast cancer COV318 and COV504 cells are cell lines derived from human ovarian cancer. Representative compounds of the invention were tested at different concentrations (from 4 μM to 126.4 pM; 0.5 log serial dilutions) for their ability to inhibit the proliferation of each of these cell lines. Known CDK inhibitors dinaciclib or N-((1S,3R)-3-((5-chloro-4-(1H-indol-3-yl) pyrimidin-2-yl)amino)cyclohexyl)-5-((E)-4-(dimethylamino)but-2-enamido)picolinamide and triptolide were used as positive controls. Cells were seeded at approximately 2,000 cells/well and grown in ATCC-formulated RPMI-1640 Medium (ATCC 30-2001)+10% FBS. The cells were cultured at 37° C. in a humidified chamber in the presence of 5% CO2. Proliferation assays were conducted over a 72-hour time period. CyQUANT® Direct Cell Proliferation Assay (Life Technologies, Chicago, Ill. USA) was used to assess the anti-proliferative effects of the compounds following manufacturer's directions and utilizing the reagents supplied with the CyQUANT® Direct Cell kit.

COV318 cells = experiment: Inhibition of cell proliferation (CyQUANT Direct), COV318; type: cell-based, human; settings: Homo sapiens, COV318, 72-hour
Method: as §1

COV504 cells = experiment: Inhibition of cell proliferation (CyQUANT Direct), COV504; type: cell-based, human; settings: Homo sapiens, COV504, 72-hour
Method: as §1

MB453 cells = experiment: Inhibition of cell proliferation (CyQUANT Direct), MB453; type: cell-based, human; settings: Homo sapiens, MB453, 72-hour
Method: as §1

CDK2/Cyclin E1 complex = CDK2/Cyclin E1 complex (Homo sapiens, UniProt P24941); experiment: CDK2 kinase inhibition assay (Caliper/LabChip EZ Reader)
[1] = biological target: CDK7/Cyclin H/MAT1 complex (Homo sapiens, UniProt P50613); experiment: CDK7 kinase inhibition assay (Caliper/LabChip EZ Reader)
CDK9/Cyclin T1 complex = CDK9/Cyclin T1 complex (Homo sapiens, UniProt P50750); experiment: CDK9 kinase inhibition assay (Caliper/LabChip EZ Reader)
[2] = biological target: CDK12 (aa686-1082)/Cyclin K complex (Homo sapiens, UniProt Q9NYV4); experiment: CDK12 kinase inhibition assay (Caliper/LabChip EZ Reader)
Chain of CDK12 (aa686-1082)/Cyclin K complex (Q9NYV4 686-1082): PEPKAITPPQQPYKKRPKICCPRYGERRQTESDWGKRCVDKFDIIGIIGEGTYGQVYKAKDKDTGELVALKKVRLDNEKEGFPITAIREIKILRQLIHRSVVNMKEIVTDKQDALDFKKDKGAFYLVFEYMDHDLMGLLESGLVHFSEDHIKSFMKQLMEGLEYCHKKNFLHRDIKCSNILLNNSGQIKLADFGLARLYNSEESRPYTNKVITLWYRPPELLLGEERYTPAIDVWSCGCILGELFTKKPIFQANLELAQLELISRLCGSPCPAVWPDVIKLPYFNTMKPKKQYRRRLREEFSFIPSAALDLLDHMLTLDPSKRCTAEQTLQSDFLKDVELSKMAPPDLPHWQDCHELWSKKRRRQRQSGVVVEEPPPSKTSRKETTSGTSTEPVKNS
Chain of CDK12 (aa686-1082)/Cyclin K complex (O75909 whole entry partner, the tested form may be a part): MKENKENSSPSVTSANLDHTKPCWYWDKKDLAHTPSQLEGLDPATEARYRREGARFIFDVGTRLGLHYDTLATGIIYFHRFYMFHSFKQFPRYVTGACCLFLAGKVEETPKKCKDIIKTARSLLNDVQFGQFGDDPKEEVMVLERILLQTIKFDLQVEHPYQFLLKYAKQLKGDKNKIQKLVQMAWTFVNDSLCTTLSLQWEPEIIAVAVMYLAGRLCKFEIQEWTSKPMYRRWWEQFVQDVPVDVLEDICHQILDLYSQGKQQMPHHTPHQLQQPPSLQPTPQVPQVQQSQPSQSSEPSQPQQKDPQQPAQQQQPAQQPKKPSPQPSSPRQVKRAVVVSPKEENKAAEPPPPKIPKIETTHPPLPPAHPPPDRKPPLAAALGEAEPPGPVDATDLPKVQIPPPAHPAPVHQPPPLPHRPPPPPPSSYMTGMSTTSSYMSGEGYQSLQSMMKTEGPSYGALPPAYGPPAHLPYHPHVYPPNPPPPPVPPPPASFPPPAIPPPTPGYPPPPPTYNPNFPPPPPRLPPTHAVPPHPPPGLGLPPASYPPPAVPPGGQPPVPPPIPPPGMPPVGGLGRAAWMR
Method: Compounds described herein were assayed for inhibition of CDK7, CDK9, CDK12, and CDK2 activity at Biortus Biosciences (Jiangyin, Jiangsu Province, P.R. of China) using kinase assays for each CDK developed with a Caliper/LabChip EZ Reader (Perkin Elmer, Waltham, Mass.).
Furthermore, the CDK9 inhibition assay used CDK9/Cyclin T1 complex (8 nM) and “5-FAM-CDK9tide” peptide substrate (2 μM, synthesized fluorophore-labeled peptide with the following sequence: 5-FAM-GSRTPMY-NH2 (SEQ ID NO:2) where 5-FAM is defined above and NH2 signifies a C-terminal amide) with 10 mM MgCl2 in the buffer composition listed above. The CDK12 inhibition assay used CDK12 (aa686-1082)/Cyclin K complex (50 nM) and “5-FAM-CDK9tide” (2 μM) as defined above, with 2 mM MgCl2 in the buffer composition above. Additionally, the CDK2 inhibition assay used CDK2/Cyclin E1 complex (0.5 nM) and “5-FAM-CDK7tide” (2 μM; defined above) with 2 mM MgCl2 in the buffer composition above.
The incubation period at 27° C. for each CDK inhibition assay was chosen such that the fraction of phosphorylated peptide product produced in each assay, relative to the total peptide concentration, was approximately 20% (±5%) for the uninhibited kinase (35 min. for CDK7, 35 min. for CDK2, 3 hr. for CDK12, 15 min. for CDK9).

Chain of CDK9/Cyclin T1 complex (P50750 whole entry, the tested form may be a part): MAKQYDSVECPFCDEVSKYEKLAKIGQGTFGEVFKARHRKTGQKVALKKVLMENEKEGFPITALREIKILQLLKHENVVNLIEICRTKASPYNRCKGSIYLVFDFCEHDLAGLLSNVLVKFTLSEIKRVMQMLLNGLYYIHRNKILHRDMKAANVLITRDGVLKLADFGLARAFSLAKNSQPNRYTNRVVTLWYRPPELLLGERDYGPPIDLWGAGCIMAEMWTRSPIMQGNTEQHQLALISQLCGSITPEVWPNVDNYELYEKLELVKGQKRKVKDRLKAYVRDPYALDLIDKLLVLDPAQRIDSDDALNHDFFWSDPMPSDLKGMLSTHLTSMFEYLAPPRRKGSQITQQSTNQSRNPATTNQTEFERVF
Chain of CDK9/Cyclin T1 complex (O60563 whole entry partner, the tested form may be a part): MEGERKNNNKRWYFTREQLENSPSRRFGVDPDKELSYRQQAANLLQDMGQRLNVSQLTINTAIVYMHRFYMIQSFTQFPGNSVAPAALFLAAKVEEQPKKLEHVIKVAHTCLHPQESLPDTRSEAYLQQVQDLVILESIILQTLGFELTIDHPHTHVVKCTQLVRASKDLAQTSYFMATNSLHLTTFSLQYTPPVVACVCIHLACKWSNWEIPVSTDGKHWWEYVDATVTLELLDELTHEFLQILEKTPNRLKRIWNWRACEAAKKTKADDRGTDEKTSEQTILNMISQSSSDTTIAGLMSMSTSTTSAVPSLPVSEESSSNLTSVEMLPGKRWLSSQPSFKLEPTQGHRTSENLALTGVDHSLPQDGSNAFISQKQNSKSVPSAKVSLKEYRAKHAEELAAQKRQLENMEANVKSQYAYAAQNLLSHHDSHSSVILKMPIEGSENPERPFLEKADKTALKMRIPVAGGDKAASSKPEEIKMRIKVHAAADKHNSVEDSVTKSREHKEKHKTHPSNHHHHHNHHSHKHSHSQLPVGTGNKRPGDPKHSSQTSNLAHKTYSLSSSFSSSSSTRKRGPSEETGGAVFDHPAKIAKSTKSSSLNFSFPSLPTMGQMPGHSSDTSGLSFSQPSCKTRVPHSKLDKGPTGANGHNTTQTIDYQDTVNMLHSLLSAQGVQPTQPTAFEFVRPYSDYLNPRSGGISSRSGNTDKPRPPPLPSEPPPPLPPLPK
Chain of CDK7/Cyclin H/MAT1 complex (P50613 whole entry): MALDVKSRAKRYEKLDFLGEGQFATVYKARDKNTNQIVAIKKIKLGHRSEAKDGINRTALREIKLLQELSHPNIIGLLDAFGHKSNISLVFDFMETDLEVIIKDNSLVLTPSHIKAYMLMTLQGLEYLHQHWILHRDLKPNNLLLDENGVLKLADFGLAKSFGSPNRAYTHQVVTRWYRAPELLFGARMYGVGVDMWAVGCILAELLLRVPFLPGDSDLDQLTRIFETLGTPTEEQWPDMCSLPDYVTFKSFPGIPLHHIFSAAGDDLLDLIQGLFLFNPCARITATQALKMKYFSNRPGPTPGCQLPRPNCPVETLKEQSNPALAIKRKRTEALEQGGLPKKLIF
Chain of CDK7/Cyclin H/MAT1 complex (P51946 whole entry partner): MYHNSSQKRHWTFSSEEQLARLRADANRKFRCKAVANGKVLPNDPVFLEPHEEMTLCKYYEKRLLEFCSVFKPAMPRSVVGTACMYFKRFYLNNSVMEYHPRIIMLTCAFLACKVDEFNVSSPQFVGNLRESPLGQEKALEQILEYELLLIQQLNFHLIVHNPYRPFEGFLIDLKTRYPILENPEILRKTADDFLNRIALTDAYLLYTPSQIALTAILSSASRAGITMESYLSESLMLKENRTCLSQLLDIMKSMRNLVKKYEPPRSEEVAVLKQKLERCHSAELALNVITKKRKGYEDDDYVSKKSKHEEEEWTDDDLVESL
Chain of CDK7/Cyclin H/MAT1 complex (P51948 whole entry partner): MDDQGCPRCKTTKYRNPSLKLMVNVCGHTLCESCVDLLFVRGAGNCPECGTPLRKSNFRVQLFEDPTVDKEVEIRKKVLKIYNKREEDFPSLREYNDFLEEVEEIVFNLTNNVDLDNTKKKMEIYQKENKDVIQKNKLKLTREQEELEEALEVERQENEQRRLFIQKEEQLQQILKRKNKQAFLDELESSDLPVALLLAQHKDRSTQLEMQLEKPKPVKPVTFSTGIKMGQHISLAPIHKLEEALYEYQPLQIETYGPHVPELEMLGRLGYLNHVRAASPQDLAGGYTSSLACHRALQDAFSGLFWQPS

Row | SMILES | IC50 (HCC70 cells) [nM] | IC50 (COV318 cells) [nM] | IC50 (COV504 cells) [nM] | IC50 (MB453 cells) [nM] | IC50 (CDK2/Cyclin E1 complex) [nM] | IC50 [1] [nM] | IC50 (CDK9/Cyclin T1 complex) [nM] | IC50 [2] [nM]
1 | Cc1ncoc1-c1ccc2c(-c3nc(N[C@H]4CCCNC4)ncc3C(F)(F)F)c[nH]c2n1 [Compound 161, 4-[6-(4-methyloxazol-5-yl)-1H-pyrrolo[2,3-b]pyridin-3-yl]-N-[(3S)-3-piperidyl]-5-(trifluoromethyl)pyrimidin-2-amine] | < 100 | 100 to 500 | < 100 | < 100 | > 500 | < 30 | > 500 | > 500
2 | CNC(=O)[C@H]1CNC[C@@H](Nc2ncc(C(F)(F)F)c(-c3c[nH]c4nc(-c5nccs5)ccc34)n2)C1 [Compound 145, (3R, 5S)—N-methyl-5-[[4-(6-thiazol-2-yl-1H-pyrrolo[2,3-b]pyridin-3-yl)-5-(trifluoromethyl)pyrimidin-2-yl]amino]piperidine-3-carboxamide] | 100 to 500 | > 1000 | 100 to 500 | 100 to 500 | > 500 | < 30 | > 500 | > 500
3 | Cc1noc(-c2ccc3c(-c4nc(N[C@H]5CCCNC5)ncc4C(F)(F)F)c[nH]c3c2)n1 [Compound 121, 4-[6-(3-methyl-1,2,4-oxadiazol-5-yl)-1H-indol-3-yl]-N-[(3S)-3-piperidyl]-5 (trifluoromethyl)pyrimidin-2-amine] | 100 to 500 | 100 to 500 | < 100 | < 100 | > 500 | < 30 | > 500 | > 500
4 | FC(F)(F)c1cnc(N[C@H]2CCCNC2)nc1-c1c[nH]c2nc(-c3nccs3)ccc12 [Compound 108] | < 100 | < 100 | < 100 | < 100 | > 500 | < 30 | > 500 | > 500
5 | Cc1noc(C)c1-c1ccc2c(-c3nc(N[C@H]4CCC(C)(C)NC4)ncc3C(F)(F)F)c[nH]c2c1 [Compound 104, (S)-4-(6-(3,5-dimethylisoxazol-4-yl)-1H-indol-3-yl)-N-(6,6-dimethylpiperidin-3-yl)-5-(trifluoromethyl)pyrimidin-2-amine] | < 100 | 100 to 500 | < 100 | < 100 | > 500 | < 30 | > 500 | > 500
6 | Cc1nc(-c2ccc3c(-c4nc(N[C@H]5CCCNC5)ncc4C(F)(F)F)c[nH]c3n2)no1 [Compound 139, 4-[6-(5-methyl-1,2,4-oxadiazol-3-yl)-1H-pyrrolo[2,3-b]pyridin-3-yl]-N-[(3S)-3-piperidyl]-5-(trifluoromethyl)pyrimidin-2-amine] | < 100 | > 1000 | < 100 | < 100 | > 500 | < 30 | > 500 | > 500
7 | Cn1nncc1-c1ccc2c(-c3nc(N[C@H]4CCCNC4)ncc3C(F)(F)F)c[nH]c2c1 [Compound 126] | < 100 | 100 to 500 | < 100 | < 100 | > 500 | < 30 | > 500 | > 500
8 | Cc1noc(C)c1-c1ccc2c(-c3nc(N[C@@H]4CNC[C@H](O)C4)ncc3C(F)(F)F)n[nH]c2n1 [Compound 146, (3R, 5S)-5-[[4-[6-(3,5-dimethylisoxazol-4-yl)-1H-pyrazolo[3,4-b]pyridin-3-yl]-5-(trifluoromethyl)pyrimidin-2-yl]amino]piperidin-3-ol] | 500 to 1000 | > 1000 | 100 to 500 | 100 to 500 | > 500 | < 30 | > 500 | > 500
9 | Cc1nc(-c2ccc3c(-c4nc(N[C@H]5CC[C@H](C)NC5)ncc4C(F)(F)F)n[nH]c3n2)no1 [Compound 167, 4-[6-(5-methyl-1,2,4-oxadiazol-3-yl)-1H-pyrazolo[3,4-b]pyridin-3-yl]-N-[(3S,6S)-6-methyl-3-piperidyl]-5-(trifluoromethyl)pyrimidin-2-amine] | < 100 | 100 to 500 | < 100 | 100 to 500 | > 500 | < 30 | > 500 | > 500
10 | Cc1nsc(-c2ccc3c(-c4nc(N[C@H]5CCCNC5)ncc4C(F)(F)F)c[nH]c3c2)n1 [Compound 130] | 100 to 500 | 100 to 500 | 100 to 500 | 100 to 500 | > 500 | < 30 | > 500 | > 500
11 | CNC(=O)[C@H]1CNC[C@@H](Nc2ncc(C(F)(F)F)c(-c3c[nH]c4cc(-c5c(C)noc5C)ccc34)n2)C1 [Compound 113] | 500 to 1000 | > 1000 | 500 to 1000 | 100 to 500 | > 500 | < 30 | > 500 | > 500
12 | Cc1nnc(C)n1-c1ccc2c(-c3nc(N[C@H]4CCCNC4)ncc3C(F)(F)F)c[nH]c2n1 [Compound 140, 4-[6-(3,5-dimethyl-1,2,4-triazol-4-yl)-1H-pyrrolo[2,3-b]pyridin-3-yl]-N-[(3S)-3-piperidyl]-5-(trifluoromethyl)pyrimidin-2-amine] | > 1000 | > 1000 | 100 to 500 | 500 to 1000 | > 500 | < 30 | > 500 | > 500
13 | Cc1noc(C)c1-c1ccc2c(-c3nc(N[C@H]4CCCNC4)ncc3C(F)(F)F)n[nH]c2n1 [Compound 118, 4-[6-(3,5-dimethylisoxazol-4-yl)-1H-pyrazolo-[3,4-b]-pyridin-3-yl]-N-[(3S)-3-piperidyl]-5-(trifluoromethyl)pyrimidin-2-amine] | < 100 | 100 to 500 | < 100 | < 100 | > 500 | < 30 | > 500 | > 500
14 | Cc1nc(-c2ccc3c(-c4nc(N[C@H]5CC[C@H](C)NC5)ncc4C(F)(F)F)c[nH]c3n2)no1 [Compound 162, 4-[6-(5-methyl-1,2,4-oxadiazol-3-yl)-1H-pyrrolo[2,3-b]pyridin-3-yl]-N-[(3S,6S)-6-methyl-3-piperidyl]-5-(trifluoromethyl)pyrimidin-2-amine] | 100 to 500 | > 1000 | < 100 | 500 to 1000 | > 500 | < 30 | > 500 | > 500
15 | Cc1noc(-c2ccc3c(-c4nc(N[C@H]5CCCNC5)ncc4C(F)(F)F)c[nH]c3n2)n1 [Compound 136, 4-[6-(3-methyl-1,2,4-oxadiazol-5-yl)-1H-pyrrolo[2,3-b]pyridin-3-yl]-N-[(3S)-3-piperidyl]-5-(trifluoromethyl)pyrimidin-2-amine] | < 100 | > 1000 | < 100 | < 100 | > 500 | < 30 | > 500 | > 500
16 | CO[C@@H]1CCNC[C@H]1Nc1ncc(C(F)(F)F)c(-c2c[nH]c3nc(-c4c(C)noc4C)ccc23)n1 (single isomer, unassigned) [Compound 117] | 100 to 500 | 500 to 1000 | < 100 | < 100 | > 500 | < 30 | > 500 | > 500
17 | Cc1nc(-c2ccc3c(-c4nc(N[C@H]5CCCNC5)ncc4C(F)(F)F)c[nH]c3c2)no1 [Compound 129, 4-[6-(5-methyl-1,2,4-oxadiazol-3-yl)-1H-indol-3-yl]-N-[(3S)-3-piperidyl]-5-(trifluoromethyl)pyrimidin-2-amine] | < 100 | < 100 | < 100 | < 100 | > 500 | < 30 | > 500 | > 500
18 | Cc1nocc1-c1ccc2c(-c3nc(N[C@H]4CCCNC4)ncc3C(F)(F)F)c[nH]c2c1 [Compound 114, (S)-4-(6-(3-methylisoxazol-4-yl)-1H-indol-3-yl)-N-(piperidin-3-yl)-5-(trifluoromethyl)pyrimidin-2-amine] | < 100 | < 100 | < 100 | < 100 | > 500 | < 30 | > 500 | > 500
19 | Cc1nocc1-c1ccc2c(-c3nc(N[C@H]4CCCNC4)ncc3C(F)(F)F)c[nH]c2n1 [Compound 132] | < 100 | < 100 | < 100 | < 100 | > 500 | < 30 | > 500 | > 500
